Results from patent publication US9302967B2, “Substituted cathechols as inhibitors of IL-4 and IL-5 for the treatment of bronchial asthma” (Council of Scientific & Industrial Research, priority 2011, dated 2016).
pIC50: −log10 of the molar value.

Columns and labels:
IL-5 = experiment: PHA-stimulated human PBMC, IL-5 in supernatant by Cytometric Bead Array; assay type: cell-based; details: Homo sapiens, PHA 10 μg/ml, read-out: IC50 inhibitory activity, stimulation-induced IL-5
Description: (§1) Normal human peripheral blood mononuclear cells (PBMC) were stimulated with phytohemagglutinin (PHA) 10 μg/ml in the presence and absence of varying concentrations of compounds of formula I and II. Culture supernatants were harvested and IIL-4 and IL-5 cytokines were quantitated by Cytometric Bead Array (CBA™) kit (Becton Dickinson, USA) following manufacturers instructions using a Flow Cytometer (BD LSR, Becton Dickinson) and CBA™ analysis software (Becton Dickinson).

IL-4 = experiment: PHA-stimulated human PBMC, IL-4 in supernatant by Cytometric Bead Array; assay type: cell-based; details: PHA 10 μg/ml, read-out: IC50 inhibitory activity, stimulation-induced IL-4
Description: as §1

Row | SMILES | pIC50 (IL-5) | pIC50 (IL-4) | melting point
1 | C=CCc1ccc(OC(C)=O)c(OC(C)=O)c1 [Compound 7, 4-allyl-1,2-phenylene diacetate] | 5.40 | 5.40 | –
2 | C=CCc1cccc(OC(C)=O)c1OC(C)=O [Compound 19, 3-allyl-1,2-phenylene diacetate] | 4.46 | 4.52 | 58 to 60 °C
3 | C=CCc1cccc(O)c1O [Compound 16, 3-allyl-benzene-1,2-diol] | 4.52 | 4.52 | –
